Like-named read-outs stand apart in the source and are kept apart here.
Test system: adenovirus type 6 (ADV6)
Assay: Evaluation of anti-adenovirus activity (CRL-11516 cells infected with ADV6, anti-hexon staining)
Type: cell-based
Settings: read-out: Anti-AdV activity EC50

Structure (SMILES) | EC50 (Human mastadenovirus C, 48 h) [µM] | also measured
Nc1nc2c(ncn2[C@H]2C[C@@H](CO)C2)c(=O)[nH]1 [Comparative Example 1, 2-Amino-9-(cis-3-(hydroxymethyl)cyclobutyl)-1,9-dihydro-6H-purin-6-one, reference compound] | – | EC50 (Human mastadenovirus C, CRL-11516 cells, ADV6 (50TCID50), 48 hours, 50% reduction of dark brown-stained cells): > 10 µM
COC(=O)[C@H](C)NP(=O)(OC[C@H]1C[C@@H](n2cnc3c(OC)nc(N)nc32)C1)Oc1ccc(Br)cc1 (stereo partly drawn) [Example 1-1, methyl (((cis-3-(2-amino-6-methoxy-9H-purin-9-yl)cyclobutyl)methoxy)(4-bromophenoxy)phosphoryl)-L-alaninate] | < 0.1 | –
COC(=O)[C@H](C)NP(=O)(OC[C@H]1C[C@@H](n2cnc3c(OC)nc(N)nc32)C1)Oc1cccc2ccccc12 (stereo partly drawn) [Example 1-2-1, methyl (((cis-3-(2-amino-6-methoxy-9H-purin-9-yl)cyclobutyl)methoxy)(naphthalen-1-yloxy)phosphoryl)-L-alaninate] | 0.1 to 1 | –
COC(=O)[C@H](C)NP(=O)(OC[C@H]1C[C@@H](n2cnc3c(OC)nc(N)nc32)C1)Oc1ccc(Cl)cc1 (stereo partly drawn) [Example 1-2-2, Methyl (((cis-3-(2-amino-6-methoxy-9H-purin-9-yl)cyclobutyl)methoxy)(4-chloro-phenoxy)phosphoryl)-L-alaninate] | – | EC50: < 0.1 µM
COc1nc(N)nc2c1ncn2[C@H]1C[C@@H](COP(=O)(OCCSC(=O)C(C)(C)C)Oc2ccccc2)C1 (stereo partly drawn) [Example 3-1, S-(2-((((cis-3-(2-amino-6-methoxy-9H-purin-9-yl)cyclobutyl)methoxy)(phenoxy)phosphoryl)oxy)ethyl)2,2-dimethylpropanethioate] | 1 to 10 | –
COc1nc(N)nc2c1ncn2[C@H]1C[C@@H](COP(=O)(N[C@@H](C)C(=O)OCc2ccccc2)Oc2ccccc2)C1 (stereo partly drawn) [Example 3-2-1, Benzyl (((cis-3-(2-amino-6-methoxy-9H-purin-9-yl)cyclobutyl)methoxy) (phenoxy)phosphoryl)-L-alaninate] | 0.1 to 1 | –
COC(=O)[C@H](C)NP(=O)(OC[C@H]1C[C@@H](n2cnc3c(OC)nc(N)nc32)C1)Oc1ccccc1 (stereo partly drawn) [Example 3-2-2, Methyl (((cis-3-(2-amino-6-methoxy-9H-purin-9-yl)cyclobutyl)methoxy)(phenoxy)phosphoryl)-L-alaninate] | 0.1 to 1 | –
COc1nc(N)nc2c1ncn2[C@H]1C[C@@H](COP(=O)(N[C@@H](C)C(=O)OC(C)C)Oc2ccccc2)C1 (stereo partly drawn) [Example 3-2-4, Isopropyl (((cis-3-(2-amino-6-methoxy-9H-purin-9-yl)cyclobutyl)methoxy) (phenoxy)phosphoryl)-L-alaninate] | 1 to 10 | –
COC(=O)[C@H](C)NP(=O)(OC[C@H]1C[C@@H](n2cnc3c(OC)nc(N)nc32)C1)Oc1ccc(Cl)cc1 (stereo partly drawn) [Example 8-2-1, Methyl (((cis-3-(2-amino-6-methoxy-9H-purin-9-yl)cyclobutyl)methoxy)(4-chlorophenoxy)phosphoryl)-L-alaninate] | < 0.1 | –
COC(=O)[C@H](C)NP(=O)(OC[C@H]1C[C@@H](n2cnc3c(OC)nc(N)nc32)C1)Oc1ccc(Cl)cc1 (stereo partly drawn) [Example 8-2-2, Methyl (((cis-3-(2-amino-6-methoxy-9H-purin-9-yl)cyclobutyl)methoxy)(4-chlorophenoxy)phosphoryl)-L-alaninate] | – | EC50: 0.1 to 1 µM
